{"source": "patent US7186755B2", "about": "(Helsinn Health Care S.A., priority 1997, dated 2007)", "key": {"[1]": {"details": "human volunteers, 14C nimesulide"}, "[2]": {"details": "rats, 14C nimesulide"}}, "note": "Where two headings read alike, the source gives them in different places.", "data": [{"compound": "CS(=O)(=O)Nc1ccc([N+](=O)[O-])cc1Oc1ccccc1", "note": "[Nimesulide]", "values": [{"measurement": "Systemic concentrations of nimesulide after dermal application", "setting": "[1]", "value": "no significant systemic concentrations"}, {"measurement": "Systemic concentrations of nimesulide after dermal application", "setting": "[2]", "value": "no significant systemic concentrations"}]}]}
